From ChEMBL document CHEMBL3124894, “Lactam sulfonamides as potent inhibitors of the Kv1.5 potassium ion channel” (Bioorg Med Chem Lett, 2014) come the findings set out here.

In general, IC50 refers to the concentration that gives 50% inhibition. The low end stands for greater potency, the high end for weaker potency. By chromatographic logD is commonly meant a lipophilicity value derived from retention on a column. Low values mean a more hydrophilic compound, high ones a more lipophilic compound. One may read the bioavailability as the share of a dose that reaches the circulation, judged against a reference dose that is usually intravenous. A high value points to much systemic uptake.

Data set [1] concerns the target T1, Potassium voltage-gated channel subfamily A member 5 (Homo sapiens, UniProt P22460). Description: Inhibition of human Kv1.5 ion channel expressed in CHO cells by patch clamp assay. The format is cell-based. For orientation: In patch-clamp work, channel activity is measured electrically.
Data set [2] is described as follows: Lipophilicity, log D of the compound by chromatography. The class given is physicochemical.
Data set [3] can be described thus: Intrinsic clearance in human liver microsomes assessed per mg protein. The format is ADME. The conditions noted are these: read-out: CLH. (In general: Microsomes from liver hold many membrane-bound enzymes, among them those of drug oxidation.)
Data set [4] can be described thus: Terminal half life in Beagle dog at 1 umol/kg, iv and 2 umol/kg, po. To be noted: in vivo, read-out: beta t1/2 (converted). The format is ADME, organism-based, Canis lupus familiaris.
Data set [5] is described as follows: Clearance in Sprague-Dawley rat at 2 umol/kg, iv and 6 umol/kg, po. The class given is ADME, organism-based. To be noted: in vivo.
The test system of data set [6] is Oryctolagus cuniculus. The experiment in a line: Antiarrhythmic activity in New Zealand white rabbit assessed as unbound steady-state plasma concentration giving 20% change in atrium effective refractory period at 0.1 to 1 umol/kg/min administered as infusion. The format is functional.
A short description of data set [7]: Oral bioavailability in Beagle dog at 2 umol/kg. The format is ADME, organism-based, Canis lupus familiaris. The conditions noted are these: in vivo.
Data set [8] can be described thus: Clearance in Beagle dog at 1 umol/kg, iv and 2 umol/kg, po. The conditions noted are these: in vivo. The class given is ADME, organism-based, Canis lupus familiaris.
Data set [9] can be described thus: Oral bioavailability in Sprague-Dawley rat at 6 umol/kg. The conditions noted are these: in vivo. The class given is ADME, organism-based.
Data set [10] relates to Oryctolagus cuniculus. The experiment in a line: Cardiotoxicity in New Zealand white rabbit assessed as QT interval at 0.1 to 1 umol/kg/min administered as infusion. The format is toxicity, organism-based. To be noted: in vivo, iv.
Data set [11] deals with Oryctolagus cuniculus. Description: Toxicity in New Zealand white rabbit assessed as CNS-like side effects at 0.1 to 1 umol/kg/min administered as infusion. The class given is organism-based. The conditions noted are these: in vivo, iv.
A short description of data set [12]: Terminal half life in Sprague-Dawley rat at 2 umol/kg, iv and 6 umol/kg, po. To be noted: in vivo, read-out: beta t1/2 (converted). The format is ADME, organism-based.
Data set [13] deals with T1, Potassium voltage-gated channel subfamily A member 5. The experiment in a line: Inhibition of Kv1.5 ion channel (unknown origin) expressed in CHO cells by Rb(+) efflux assay. The class given is cell-based.

T1 sequence (P22460 whole entry): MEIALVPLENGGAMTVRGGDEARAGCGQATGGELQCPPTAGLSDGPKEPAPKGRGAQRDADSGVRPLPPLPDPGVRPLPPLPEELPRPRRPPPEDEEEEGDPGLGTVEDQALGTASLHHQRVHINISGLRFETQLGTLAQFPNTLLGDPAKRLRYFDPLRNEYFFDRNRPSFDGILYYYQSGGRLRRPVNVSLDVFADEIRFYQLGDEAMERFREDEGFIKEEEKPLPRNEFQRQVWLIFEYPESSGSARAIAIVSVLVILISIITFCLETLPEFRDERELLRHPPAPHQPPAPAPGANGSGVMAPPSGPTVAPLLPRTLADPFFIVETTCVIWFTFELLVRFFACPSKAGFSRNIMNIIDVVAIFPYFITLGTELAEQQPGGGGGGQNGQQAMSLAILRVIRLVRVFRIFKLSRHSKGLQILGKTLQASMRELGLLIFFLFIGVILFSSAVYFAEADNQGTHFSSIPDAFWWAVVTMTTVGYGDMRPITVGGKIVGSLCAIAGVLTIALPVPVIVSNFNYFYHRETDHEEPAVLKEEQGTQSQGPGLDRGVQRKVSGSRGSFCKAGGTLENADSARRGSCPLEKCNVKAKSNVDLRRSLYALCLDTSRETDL

Turning to `N#Cc1cccc(S(=O)(=O)N(Cc2ccc(F)cc2)C[C@@H]2CCCC(=O)N2)c1`, the midpoint of inhibition in [1], the IC50, lay at 7.6 µM. This compound also gave a chromatographic logD in data set [2] of 2.9.

In data set [1], `N#Cc1cccc(S(=O)(=O)N(CC[C@@H]2CCC(=O)N2)Cc2ccc(F)cc2)c1` returned an IC50 of 2.7 µM. In data set [2], this compound gave a chromatographic logD of 2.9.

In turn, `CN1C(=O)CC[C@H]1CN(Cc1ccc(F)cc1)S(=O)(=O)c1cccc(C#N)c1` displayed an IC50 in data set [1] of 0.81 µM. This compound came in with a chromatographic logD in data set [2] of 3.1.

`CCN1C(=O)CC[C@H]1CN(Cc1ccc(F)cc1)S(=O)(=O)c1cccc(C#N)c1` yielded an IC50 in data set [1] of 2.8 µM. The chromatographic logD in data set [2] stood at 3.5.

As to `N#Cc1cccc(S(=O)(=O)N(CCc2ccc(F)cc2)C[C@@H]2CCC(=O)N2)c1`, in data set [1], the IC50 is above 10 µM. This compound also came in with a chromatographic logD in data set [2] of 2.9.

With `N#Cc1cccc(S(=O)(=O)N(Cc2ccc(Cl)cc2)C[C@@H]2CCC(=O)N2)c1`, the IC50 in [1] was 2.2 µM. The compound also had a chromatographic logD in data set [2] of 3.1.

Consider `N#Cc1cccc(S(=O)(=O)N(Cc2cccc(Cl)c2)C[C@@H]2CCC(=O)N2)c1`, for which the IC50 in data set [1] was 4.3 µM. This compound had a chromatographic logD in data set [2] of 3.

Take `N#Cc1cccc(S(=O)(=O)N(Cc2ccccc2Cl)C[C@@H]2CCC(=O)N2)c1`: in [1], the IC50 is above 10 µM. This compound had a chromatographic logD in data set [2] of 2.7.

Regarding `CN1C(=O)CC[C@H]1CN(Cc1ccc(Cl)cc1)S(=O)(=O)c1cccc(C#N)c1`, the microsomal CLint in [3] was 116 µL/min/mg. In data set [1], this compound had an IC50 of 0.21 µM. Further, the half-life in data set [4] is 52.2 min; in [12], 31.8 min. The clearance in data set [5] was found to be 45 mL/min/kg; in data set [8] it was 31 mL/min/kg. Moreover, in the data set on Oryctolagus cuniculus [6], the “Cp(f)ss” value is 0.35 µM. In [2], this compound came in with a chromatographic logD of 3.6. For the same compound, the bioavailability in data set [7] is 44%; in data set [9], 45%. Further, the Time in the data set on Oryctolagus cuniculus [10] is below 10 ms. For the same compound, in the data set on Oryctolagus cuniculus [11], the Activity entry is “Non-toxic”.

For the compound `NC(=O)c1ccc(N(Cc2ccc(F)cc2)S(=O)(=O)c2ccccc2F)cc1`, the concentration for half-maximal inhibition (IC50) in data set [1] was found to be 2.2 µM. This compound showed a chromatographic logD in data set [2] of 3.4.

`O=S(=O)(c1ccccc1F)N(Cc1ccccc1)Cc1ccc(F)cc1` came in with an IC50 in data set [1] of 4.8 µM. The compound also registered a chromatographic logD in [2] of 6.2.

In turn, `O=S(=O)(c1ccc(F)cc1)N(Cc1ccc(F)cc1)Cc1ccccn1` gave an IC50 in data set [1] of 2 µM. In data set [2], this compound displayed a chromatographic logD of 4.7.

For `O=C1CC[C@@H](CN(Cc2ccc(F)cc2)S(=O)(=O)c2ccc(F)cc2)N1`, the IC50 in data set [1] worked out at 4.1 µM. This compound also yielded a chromatographic logD in [2] of 3.

The compound `O=C1CC[C@@H](CN(Cc2ccc(F)cc2)S(=O)(=O)c2ccccc2)N1` displayed an IC50 in data set [1] of 8.8 µM. This compound yielded a chromatographic logD in [2] of 2.7.

For the compound `O=C1CC[C@@H](CN(Cc2ccc(F)cc2)S(=O)(=O)c2cccc(F)c2)N1`, the half-inhibitory concentration (IC50) in data set [1] stood at 7.2 µM. This compound also returned a chromatographic logD in data set [2] of 3.1.

Compound `O=C1CC[C@@H](CN(Cc2ccc(F)cc2)S(=O)(=O)c2cccc(Cl)c2)N1` gave an IC50 in data set [1] of 0.8 µM. In addition, the chromatographic logD in data set [2] was 3.6.

Consider `O=C1CC[C@@H](CN(Cc2ccc(F)cc2)S(=O)(=O)c2cc(Cl)cc(Cl)c2)N1`, for which the IC50 in data set [1] turned out to be 8.1 µM. For the same compound, in data set [2], the chromatographic logD came out at 4.4.

`COc1cccc(S(=O)(=O)N(Cc2ccc(F)cc2)C[C@@H]2CCC(=O)N2)c1` had an IC50 in data set [1] of 2 µM. Moreover, in [2], the chromatographic logD was 3.1.

`O=C1CC[C@@H](CN(Cc2ccc(F)cc2)S(=O)(=O)c2cccc3c2OCCO3)N1` registered an IC50 in data set [1] above 10 µM. Besides, in data set [2], the chromatographic logD came to 3.

Regarding `CS(=O)(=O)c1cccc(S(=O)(=O)N(Cc2ccc(F)cc2)C[C@@H]2CCC(=O)N2)c1`, the half-maximal inhibitory concentration (IC50) in [1] is 8.7 µM. In data set [2], this compound came in with a chromatographic logD of 2.

In data set [1], `N#Cc1cccc(S(=O)(=O)N(Cc2ccc(F)cc2)C[C@@H]2CCC(=O)N2)c1` showed an IC50 of 2.6 µM. For the same compound, in data set [2], the chromatographic logD is 2.7.

Regarding `N#Cc1ccc(S(=O)(=O)N(Cc2ccc(F)cc2)C[C@@H]2CCC(=O)N2)cc1`, the IC50 in data set [1] is above 30 µM. This compound showed a chromatographic logD in data set [2] of 2.6.

Compound `N#Cc1ccccc1S(=O)(=O)N(Cc1ccc(F)cc1)C[C@@H]1CCC(=O)N1` returned an IC50 in [1] above 30 µM. Besides, the chromatographic logD in data set [2] was 2.5.

For the compound `N#Cc1cccc(S(=O)(=O)N(Cc2ccc(F)cc2)C[C@H]2CCC(=O)N2)c1`, in data set [1], the half-maximal inhibitory concentration (IC50) worked out at 8.7 µM. The same compound came in with a chromatographic logD in data set [2] of 2.5.

`COc1ccc(S(=O)(=O)N[C@H]2CCCC[C@@H]2OCc2ccccc2)cc1` (racemic) registered an IC50 in data set [13] of 28 µM.

In the case of `COc1ccc(S(=O)(=O)N(Cc2ccccc2)[C@H]2CCCC[C@@H]2O)cc1` (racemic), in [2], the chromatographic logD was 4.6. This compound also came in with an IC50 in data set [13] of 2 µM.
